This is an account of results in patent publication US9956220B2, “Imidazo-pyridazine derivatives as casein kinase 1 δ/ϵ inhibitors” (Bristol-Myers Squibb Company, priority 2014, dated 2018).

For one assay, the target named is CK1ϵ (Homo sapiens, UniProt P49674). Description: CK1ϵ kinase assay (Caliper LABCHIP electrophoretic separation of fluoresceinated peptide substrate and product). Particulars: 200 pM CK1ϵ, 50 μM ATP, 1.5 μM peptide substrate, 22 hours at room temperature; read-out: CK1ε (IC50). Format: biochemical. As for the experimental part:
(§1) CK1ϵ and CK1δ Kinase Assays
(§2) The kinase assay was performed in V-bottom 384-well plates.
(§3) The reaction was incubated at room temperature for 22 hours and terminated by adding 45 μl of 35 mM EDTA to each sample. The reaction mixture was analyzed on the Caliper LABCHIP®3000 (Caliper, Hopkinton, Mass.) by electrophoretic separation of the unphosphorylated substrate and phosphorylated product. […] Compounds were dissolved at 10 mM in dimethylsulfoxide (DMSO) and evaluated at eleven concentrations. IC50 values were derived by non-linear regression analysis.

Another assay addresses CK1δ (Homo sapiens, UniProt P48730). Nature of the assay: CK1δ kinase assay (Caliper LABCHIP electrophoretic separation of fluoresceinated peptide substrate and product). Format: biochemical. The following applies: 200 pM CK1δ, 50 μM ATP, 1.5 μM peptide substrate, 22 hours at room temperature. As for the experimental part: as §1, §2, §3

The structures appear in SMILES notation. pIC50: −log10 of the molar value.

CK1ϵ, sequence (P49674 whole entry): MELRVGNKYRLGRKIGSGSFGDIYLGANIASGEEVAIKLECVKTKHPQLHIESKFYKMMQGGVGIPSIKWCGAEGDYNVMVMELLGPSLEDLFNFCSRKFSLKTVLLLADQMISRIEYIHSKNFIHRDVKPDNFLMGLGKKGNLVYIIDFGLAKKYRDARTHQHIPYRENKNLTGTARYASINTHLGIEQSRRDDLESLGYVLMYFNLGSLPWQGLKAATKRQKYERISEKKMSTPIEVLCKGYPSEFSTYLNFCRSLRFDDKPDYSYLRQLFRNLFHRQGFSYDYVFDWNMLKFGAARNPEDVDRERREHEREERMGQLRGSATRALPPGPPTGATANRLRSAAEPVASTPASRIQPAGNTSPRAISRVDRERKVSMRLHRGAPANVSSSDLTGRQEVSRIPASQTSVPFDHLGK
CK1δ, sequence (P48730 whole entry): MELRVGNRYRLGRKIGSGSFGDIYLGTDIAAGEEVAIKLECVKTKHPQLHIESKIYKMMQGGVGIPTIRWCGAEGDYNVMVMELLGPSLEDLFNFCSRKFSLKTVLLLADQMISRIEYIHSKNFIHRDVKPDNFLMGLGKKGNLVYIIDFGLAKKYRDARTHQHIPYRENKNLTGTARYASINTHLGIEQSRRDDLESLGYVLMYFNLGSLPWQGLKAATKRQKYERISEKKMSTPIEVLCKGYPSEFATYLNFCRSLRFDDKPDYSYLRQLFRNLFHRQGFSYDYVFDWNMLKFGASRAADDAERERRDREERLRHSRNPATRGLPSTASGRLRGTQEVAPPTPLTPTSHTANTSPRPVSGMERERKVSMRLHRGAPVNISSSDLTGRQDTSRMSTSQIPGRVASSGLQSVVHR

Regarding `COC(=O)N1CCn2nc(-c3ccc(F)cc3)c(-c3ccc4nc(NC(=O)c5ccnc(F)c5)cn4n3)c2C1` [Example 33, Methyl 3-(2-(2-fluoroisonicotinamido)imidazo[1,2-b]pyridazin-6-yl)-2-(4-fluorophenyl)-6,7-dihydropyrazolo[1,5-a]pyrazine-5(4H)-carboxylate], the values for the pIC50 on CK1ϵ and against CK1δ were 8.72 and 9.52, respectively.
On the same counts, the results for `O=C(Nc1cn2nc(-c3c(-c4ccc(F)cc4)nn4c3CN(C(=O)NC35CC6CC(CC(C6)C3)C5)CC4)ccc2n1)c1ccnc(F)c1` [Example 45, N-(Adamantan-1-yl)-3-(2-(2-fluoroisonicotinamido)imidazo [1,2-b]pyridazin-6-yl)-2-(4-fluorophenyl)-6,7-dihydropyrazolo[1,5-a]pyrazine-5(4H)-carboxamide] are 6.81 and 7.72.
On the same counts, the results for `O=C(Nc1cn2nc(-c3c(-c4ccc(F)cc4)nn4c3COCC4)ccc2n1)c1ccnc(N2CCOCC2)c1` [Example 55, N-(6-(2-(4-Fluorophenyl)-6,7-dihydro-4H-pyrazolo[5,1-c][1,4]oxazin-3-yl)imidazo[1,2-b]pyridazin-2-yl)-2-morpholinoisonicotinamide] are 8.62 and 9.52.
On the same counts, the results for `O=C(Nc1cn2nc(-c3c(-c4ccc(F)cc4)nn4c3CN(CCC(F)(F)F)CC4)ccc2n1)c1ccnc(F)c1` [Example 27, 2-Fluoro-N-(6-(2-(4-fluorophenyl)-5-(3,3,3-trifluoropropyl)-4,5,6,7-tetrahydropyrazolo[1,5-a]pyrazin-3-yl)imidazo[1,2-b]pyridazin-2-yl)isonicotinamide] are 8.44 and 9.30.
`CC(C)OC(=O)N1CCn2nc(-c3ccc(F)cc3)c(-c3ccc4nc(NC(=O)c5ccnc(F)c5)cn4n3)c2C1` [Example 34, Isopropyl 3-(2-(2-fluoroisonicotinamido)imidazo[1,2-b]pyridazin-6-yl)-2-(4-fluorophenyl)-6,7-dihydropyrazolo[1,5-a] pyrazine-5(4H)-carboxylate]: the pIC50 at CK1ϵ was 8.19; at CK1δ, 9.00.
On the same counts, the results for `O=C(Nc1cn2nc(-c3c(-c4ccc(F)cc4)nn4c3CCCC4)ccc2n1)c1ccncc1` [Example 63, N-(6-(2-(4-Fluorophenyl)-4,5,6,7-tetrahydropyrazolo[1,5-a]pyridin-3-yl)imidazo[1,2-b]pyridazin-2-yl) isonicotinamide] are 8.92 and 9.52.
For `O=C(Nc1cn2nc(-c3c(-c4ccc(F)cc4)nn4c3CN(C(=O)NC3CCCCC3)CC4)ccc2n1)c1ccnc(F)c1` [Example 43, N-Cyclohexyl-3-(2-(2-fluoroisonicotinamido)imidazo [1,2-b]pyridazin-6-yl)-2-(4-fluorophenyl)-6,7-dihydropyrazolo[1,5-a]pyrazine-5(4H)-carboxamide] the same measures were 7.62 and 8.80.
On to `CN1CCn2nc(-c3ccc(F)cc3)c(-c3ccc4nc(NC(=O)c5ccnc(F)c5)cn4n3)c2C1` [Example 26, 2-Fluoro-N-(6-(2-(4-fluorophenyl)-5-methyl-4,5,6,7-tetrahydropyrazolo [1,5-a]pyrazin-3-yl)imidazo[1,2-b]pyridazin-2-yl)isonicotinamide], for which the pIC50 at CK1ϵ is 8.14; against CK1δ it was 9.40.
For `O=C(Nc1cn2nc(-c3c(-c4ccc(F)cc4)nn4c3CNCC4)ccc2n1)c1ccnc(C(F)(F)F)c1` [Example 10, N-(6-(2-(4-Fluorophenyl)-4,5,6,7-tetrahydropyrazolo[1,5-a]pyrazin-3-yl)imidazo[1,2-b]pyridazin-2-yl)-2-(trifluoromethyl)isonicotinamide] the same measures were 7.90 and 8.68.
For `CC(C)C(=O)N1CCn2nc(-c3ccc(F)cc3)c(-c3ccc4nc(NC(=O)c5ccnc(F)c5)cn4n3)c2C1` [Example 22, 2-Fluoro-N-(6-(2-(4-fluorophenyl)-5-isobutyryl-4,5,6,7-tetrahydropyrazolo[1,5-a]pyrazin-3-yl)imidazo[1,2-b]pyridazin-2-yl) isonicotinamide], the pIC50 was 8.51 on CK1ϵ and 9.22 on CK1δ.
In the case of `O=C(Nc1cn2nc(-c3c(-c4ccc(F)cc4)nn4c3CN(C3CC3)CC4)ccc2n1)c1ccnc(F)c1` [Example 31, N-(6-(5-Cyclopropyl-2-(4-fluorophenyl)-4,5,6,7-tetrahydropyrazolo[1,5-a]pyrazin-3-yl)imidazo[1,2-b]pyridazin-2-yl)-2-fluoroisonicotinamide], the pIC50 at CK1ϵ is 8.96; at CK1δ, 10.00.
As for `O=C(Nc1cn2nc(-c3c(-c4ccc(F)cc4)nn4c3CN(C(=O)NCC(F)(F)F)CC4)ccc2n1)c1ccnc(F)c1` [Example 48, 3-(2-(2-Fluoroisonicotinamido)imidazo[1,2-b]pyridazin-6-yl)-2-(4-fluorophenyl)-N-(2,2,2-trifluoroethyl)-6,7-dihydropyrazolo[1,5-a]pyrazine-5(4H)-carboxamide], the values for the pIC50 at CK1ϵ and against CK1δ were 8.25 and 9.40, respectively.
For `O=C(Nc1cn2nc(-c3c(-c4ccc(F)cc4)nn4c3CN(C(=O)Nc3ccc(C(F)(F)F)cc3)CC4)ccc2n1)c1ccnc(F)c1` [Example 47, 3-(2-(2-Fluoroisonicotinamido)imidazo[1,2-b]pyridazin-6-yl)-2-(4-fluorophenyl)-N-(4-(trifluoromethyl)phenyl)-6,7-dihydropyrazolo[1,5-a]pyrazine-5(4H)-carboxamide] the same measures were 6.84 and 7.92.
For the compound `O=C(Nc1cn2nc(-c3c(-c4ccc(F)cc4)nn4c3CCC4)ccc2n1)c1ccnc(F)c1` [Example 65, 2-Fluoro-N-(6-(2-(4-fluorophenyl)-5,6-dihydro-4H-pyrrolo[1,2-b]pyrazol-3-yl)imidazo[1,2-b]pyridazin-2-yl)isonicotinamide], the pIC50 on CK1ϵ is 8.33; against CK1δ, 9.40.
On the same counts, the results for `Nc1cc(C(=O)Nc2cn3nc(-c4c(-c5ccc(F)cc5)nn5c4COCC5)ccc3n2)ccn1` [Example 58, 2-Amino-N-(6-(2-(4-fluorophenyl)-6,7-dihydro-4H-pyrazolo[5,1-c][1,4]oxazin-3-yl)imidazo[1,2-b]pyridazin-2-yl) isonicotinamide] are 8.57 and 9.70.
For `O=C(Nc1cn2nc(-c3c(-c4ccc(F)cc4)nn4c3CN(C3CCC3)CC4)ccc2n1)c1ccnc(F)c1` [Example 29, N-(6-(5-Cyclobutyl-2-(4-fluorophenyl)-4,5,6,7-tetrahydropyrazolo[1,5-a]pyrazin-3-yl)imidazo[1,2-b]pyridazin-2-yl)-2-fluoroisonicotinamide] the same measures were 8.22 and 9.40.
For `O=C(Nc1cn2nc(-c3c(-c4ccc(F)cc4)nn4c3CN(C(=O)CC(F)(F)F)CC4)ccc2n1)c1ccnc(F)c1` [Example 15, 2-Fluoro-N-(6-(2-(4-fluorophenyl)-5-(3,3,3-trifluoropropanoyl)-4,5,6,7-tetrahydropyrazolo [1,5-a]pyrazin-3-yl)imidazo[1,2-b]pyridazin-2-yl)isonicotinamide] the same measures were 9.15 and 9.70.
For the compound `O=C(Nc1cn2nc(-c3c(-c4ccc(F)cc4)noc3C3CCOCC3)ccc2n1)c1ccnc(N2CCOCC2)c1` [Example 70, N-(6-(3-(4-Fluorophenyl)-5-(tetrahydro-2H-pyran-4-yl)isoxazol-4-yl)imidazo[1,2-b]pyridazin-2-yl)-2-morpholinoisonicotinamide], the negative-log IC50 (pIC50) is 7.56 at CK1ϵ and 8.42 at CK1δ.
